Assay results published in patent publication US12173137B2, “Functionalized high-oleic soybean oil wax and emulsion for post-harvest treatment of fresh fruit” (Iowa State University Research Foundation, Inc., priority 2020, dated 2024).
Marks after values point to notes of the source that are not given here.

Assays:
Type in all cases: physicochemical
[1] = Cohesiveness of wax materials (three-point bend test); details: area under curve to peak force, 4 mm-thick cast sample
Protocol: (§1) Hardness, defined as a measure of resistance to local deformation, was measured using a H-1200 Universal Penetrometer (Humboldt Mfg. Co., Raleigh, NC) following ASTM D1321 standard. Ten grams of molten material were cast in a 5 cm diameter by 3 cm tall hollow polyvinyl chloride plastic mold. Material was allowed to fully cool and equilibrate to room temperature for at least 6 hours prior to testing. The distance traveled by penetrometer needle (mm) into the wax disc was recorded as the hardness (mm^−1) after taking the reciprocal value. Cohesiveness, defined as the strength of a material due to interatomic or intermolecular forces, was measured as per previous methodology (Fei et al., “Synthesis and Characterization of Soybean Oil-Based Waxes and Their Application as Paraffin Substitute for Corrugated Coating,” J. Ind. Eng. Chem. 58:113-122 (2018), which is hereby incorporated by reference in its entirety) by a three-point bend test using a TA.XTPlus Texture Analyzer (Stable Micro Systems, So. Hamilton, MA) with a TA-92N probe on a 4 mm-thick cast wax sample, made by casting 2.2-2.8 g of molten material in a small hexagonal weighing boat, and allowing samples to cool to r.t. for at least 2 hours. Hexagonal samples were then sanded down flat to a uniform mass with a fine grit sanding sponge taking care to remove concave and convex regions. Test was performed by placing sample between two vertical support bars 12 mm apart and driving the blunt blade normal to the sample at 0.5 mm/s to a trigger distance of 3 mm. The area under curve was acquired from a distance at 0 mm to the peak positive force, and the average of three tests for each material was recorded as the cohesiveness (g mm) of the material.

[2] = Differential scanning calorimetry of wax materials; details: for Relative Crystallinity: 290 J/g for a 100% crystalline material; for Enthalpy of Melting: DSC, heating to 100° C. at 10° C./min
Protocol: Melting profile of wax materials was analyzed with a DSC 250 Discovery (TA Instruments, New Castle, Del.) calorimeter using the methodology by Donhowe and Fennema (1993). Wax samples (approximately 10 mg) were first heated to 100° C. at a rate of 200° C./min, held for 3 min, cooled to 25° C. at a rate of 20° C./min and equilibrated for 3 min. Actual test ramp was then performed by heating to 100° C. at a rate of 10° C./min. Melting point ranges were calculated from the average of three samples from each material.

[3] = Hardness of wax materials (penetrometer, ASTM D1321); details: reciprocal of needle penetration distance, room temperature
Protocol: as §1

Molecule | Cohesiveness [1] | Relative Crystallinity [2] | Enthalpy of Melting [2] | Hardness [3]
CCCCCCC(=O)CCCCCCCCCCC(=O)O [Compound 7, 12-Oxooctadecanoic Acid] | 360 ± 34 g mm | 42.8 ± 10.1% | 124.3 ± 29.4 J/g | 0.63 ± 0.08 mm^−1
Triacylglyceride of Regioisomeric Hydroxyoctadecanoic Acid [Compound 3] | 113 ± 13 g mm | 12.9 ± 1.5^ef % | 37.3 ± 4.3 J/g | 0.68 ± 0.05 mm^−1
CCCCCC[C@@H](O)CCCCCCCCCCC(=O)O [Compound 6, (R)-12-hydroxyoctadecanoic acid, reference compound] | 1443 ± 30^c g mm | 51.2 ± 1.0^ab % | 148.4 ± 3.1 J/g | 2.22 ± 0.04^c mm^−1
Mixture of 9-Hydroxyoctadecanoic (4a) and 10-Hydroxyoctadecanoic Acid (4b) [Compound 4a-b] | 95 ± 1 g mm | 6.3 ± 0.4^f % | 18.3 ± 0.1 J/g | 0.30 ± 0.02^e mm^−1
CCCCCCC(=O)CCCCCCCCCCC(=O)OCC(COC(=O)CCCCCCCCCCC(=O)CCCCCC)OC(=O)CCCCCCCCCCC(=O)CCCCCC [Compound 8, Propane-1,2,3-triyl tris(12-oxooctadecanoate)] | 203 ± 49 g mm | 43.7 ± 0.7^ % | 126.8 ± 2.0 J/g | 0.50 ± 0.09 mm^−1
